Assay results published in ChEMBL document CHEMBL5236666, “Investigation of mitochondrial targeting ability of sydnones and sydnonimines and mitochondria-targeted delivery of celecoxib” (Bioorg Med Chem Lett, 2023).

Experiments:
HepG2 [1] = experiment: Cytotoxicity against human HepG2 cells assessed as inhibition of cell proliferation in presence of 100 uM of DIBAC; format: functional, cell-based
HepG2 [2] = experiment: Cytotoxicity against human HepG2 cells assessed as inhibition of cell proliferation; format: functional, cell-based
HeLa [3] = experiment: Cytotoxicity against human HeLa cells assessed as inhibition of cell proliferation in presence of 100 uM of DIBAC; format: functional, cell-based
HeLa [4] = experiment: Cytotoxicity against human HeLa cells assessed as inhibition of cell proliferation; format: functional, cell-based
[5] = Drug uptake in mitochondria of human HeLa cells incubated for 30 mins; format: ADME; details: 0.5 h
[6] = Drug uptake in human HeLa cells assessed as increase in colocalization by measuring fluorescence intensity at 5 uM incubated for 30 mins; format: ADME, cell-based; details: 0.5 h

Compound	IC50 (HepG2 [2]) [µM]	IC50 (HeLa [4]) [µM]	Drug uptake [5]	also measured
CCOC(=O)c1ccc(-[n+]2cc([N-]S(=O)(=O)c3ccc(-n4nc(C(F)(F)F)cc4-c4ccc(C)cc4)cc3)on2)cc1	> 100	> 100	–	IC50 (HepG2 [1]): 66.2 µM; IC50 (HeLa [3]): 85.3 µM
CC1=CC(C)=[N+]2C1=Cc1ccc(CCC(=O)NCCCNC(=O)c3ccc(-[n+]4noc(O)c4-c4ccccc4)cc3)n1[B-]2(F)F	–	–	Not Active	–
Cc1ccc(-c2cc(C(F)(F)F)nn2-c2ccc(S(N)(=O)=O)cc2)cc1 [CELECOXIB]	43.6	32.7	–	–
O=C(NCCCNC(=O)c1ccc(-[n+]2cc([O-])on2)cc1)OCC1C[C@@H]2C=C[C@H]1C2 (some centres undefined)	–	–	–	Drug uptake [6]: Active
CC1=CC(C)=[N+]2C1=Cc1ccc(CCC(=O)NCCCNC(=O)c3ccc(-[n+]4cc(O)on4)cc3)n1[B-]2(F)F	–	–	Active	–
